14 compounds from patent US9890185B2, “Urea derivatives useful as kinase inhibitors” (Respivert Limited, priority 2013, dated 2018) can be followed below.

As usually defined, the pIC50 is the negative decadic logarithm of the IC50, by convention in mol/L.

The test system of one assay is HT29 cells. Briefly: IL-1β-induced IL-8 release in HT29 cells (assay d). The class given is cell-based. The conditions noted are these: Homo sapiens, HT-29; IL-1β-stimulated HT29 cells; read-out: IC50 Values for Inhibition of Cytokine Release, HT29 cells IL-8. Here is the method:
HT29 cells, a human colon adenocarcinoma cell line, are plated in a 96 well plate (24 hrs) and pre-treated with compounds at the desired concentration for 2 hours before addition of 5 ng/mL of IL-1β (Abcam) for 24 hours. Supernatants are harvested for IL-8 quantification by Sandwich ELISA (Duo-set, R&D System). The IC50 is determined from the dose response curve.

A further assay concerns d-U937 cells. Briefly: Accumulation of β catenin in d-U937 cells (assay m). The class given is cell-based, human. The conditions noted are these: percentage relative to Reference Compound at 1 μg/mL. In short, it runs like this: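 Read-out: colourimetric cell-based immunoassay for endogenous β-catenin (OD450 minus 655 reference), normalised to crystal violet absorbance at 595 nm. Test compound or vehicle was applied for 18 hr to U937 monocytes first differentiated with PMA (100 ng/mL) for 48–72 hr.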

A further assay has as its system TNBS-induced colitis. Briefly: TNBS-induced colitis in mice (in vivo assay iv). The arrangement: species or system BDF1 mice; TNBS Ulcer grade / TNBS LP inflammation: scale not given here. The conditions noted are these: SMEDDS vehicle; for Activity in in vivo model of colonic inflammation (histopathology analysis) / Inflammatory cell infiltrate in the reticular and laminar propria zone: TNBS colitis over 2 days; for TNBS LP inflammation / TNBS Ulcer grade: mice, 5 mg/kg orally, conducted over 2 days, histopathology. Here is the method: Non-fasted, 10-12 week old, male BDF1 mice are dosed by oral gavage twice daily with either vehicle (5 mL/kg), reference item (Budesonide 2.5 mg/kg) or test compound (1 or 5 mg/kg) one day before (Day −1) stimulation of the inflammatory response by treatment with 2,4,6-trinitrobenzenesulphonic acid (TNBS) (15 mg/mL in 50% ethanol/50% saline). On Day 0 of the study TNBS (200 μL) is administered intra-colonically via a plastic catheter with BID dosing of the vehicle, reference or test compound continuing for 2 or 4 days. During the study animals are weighed every day and stool observations are made and recorded as a score, based on stool consistency. At the time of sacrifice on Day 2 (or Day 4) the large intestine is removed and the length and weight recorded. Sections of the colon are taken for histopathology scoring to determine disease severity.

Molecules are shown by their SMILES. pIC50: −log10 of the molar value.

Turning to `C#Cc1cc(Nc2cc(Oc3ccc(NC(=O)Nc4cc(C(C)(C)C)cc(P(C)(C)=O)c4OC)c4ccccc34)ccn2)cc(C(=O)NCCOCCOCCOC)c1` [Example 3, 3-((4-((4-(3-(5-(tert-Butyl)-3-(dimethylphosphoryl)-2-methoxyphenyl)ureido)naphthalen-1-yl)oxy)pyridin-2-yl)amino)-5-ethynyl-N-(2-(2-(2-methoxyethoxy)ethoxy)ethyl)benzamide], the negative-log IC50 (pIC50) with HT29 cells was 7.84. For the same compound, the figures for the “% β-catenin induction” value in the assay with d-U937 cells (test compound 1 μg/mL), in the assay with d-U937 cells (test compound 5 μg/mL) and with d-U937 cells (test compound 10 μg/mL) were 5.7%, 9.7% and 7.3%, respectively.
Taken in the same sequence, the figures for `COCCOCCOCCOc1cc(Nc2nccc(Oc3ccc(NC(=O)Nc4cc(C(C)(C)C)cc(OCP(C)(C)=O)c4OC)c4ccccc34)n2)cc(OC)c1` [Example 6, 1-(5-(tert-Butyl)-3-((dimethylphosphoryl)methoxy)-2-methoxyphenyl)-3-(4-((2-((3-methoxy-5-(2-(2-(2-methoxyethoxy)ethoxy)ethoxy)phenyl)amino)pyrimidin-4-yl)oxy)naphthalen-1-yl)urea] were 8.28, 1.0%, 29.0% and 65.0%.
Turning to `COCCOCCOCCOc1cc(Nc2cc(Oc3ccc(NC(=O)Nc4cc(C(C)(C)C)cc(P(C)(C)=O)c4)c4ccccc34)ccn2)cc(OC)c1` [Example 10, 1-(3-(tert-Butyl)-5-(dimethylphosphoryl)phenyl)-3-(4-((2-((3-methoxy-5-(2-(2-(2-methoxy-ethoxy)ethoxy)ethoxy)phenyl)amino)pyridin-4-yl)oxy)naphthalen-1-yl)urea], in the assay with HT29 cells, the pIC50 was 8.09. Further, the “% β-catenin induction” value is listed as −2.5% in the assay on d-U937 cells (test compound 1 μg/mL), −6.0% in the assay on d-U937 cells (test compound 5 μg/mL) and −4.0% with d-U937 cells (test compound 10 μg/mL).
`COc1c(NC(=O)Nc2ccc(Oc3ccnc(Nc4ccccc4)c3)c3ccccc23)cc(C(C)(C)C)cc1P(C)(C)=O` [Example 11, 1-(5-(tert-Butyl)-3-(dimethylphosphoryl)-2-methoxyphenyl)-3-(4-((2-(phenylamino)pyridin-4-yl)oxy)naphthalen-1-yl)urea]: in the assay with HT29 cells, the pIC50 was 7.80. The “% β-catenin induction” value in the assay on d-U937 cells (test compound 1 μg/mL) is 5.0%; in the assay with d-U937 cells (test compound 5 μg/mL), 19.7%; in the assay on d-U937 cells (test compound 10 μg/mL), 27.3%.
With `COc1c(NC(=O)Nc2ccc(Oc3ccnc(Nc4ccccc4)c3)c3ccccc23)cc(C(C)(C)C)cc1C(=O)NCCN1CCOCC1` [Example 14, 5-(tert-Butyl)-2-methoxy-N-(2-morpholinoethyl)-3-(3-(4-((2-(phenylamino)pyridin-4-yl)oxy)naphthalen-1-yl)ureido)benzamide], in the assay with TNBS-induced colitis, the “Activity in in vivo model of colonic inflammation (histopathology analysis)” value is given as “significant activity”; the “Inflammatory cell infiltrate in the reticular and laminar propria zone” value is recorded as “marked reductions”; the “TNBS LP inflammation” value amounted to 3.6 ± 0.2; the “TNBS Ulcer grade” value was determined as 3.5 ± 0.5. Moreover, the “% β-catenin induction” value in the assay with d-U937 cells (test compound 1 μg/mL) was −0.5%. For the same compound, in the assay with d-U937 cells (test compound 5 μg/mL), the “% β-catenin induction” value turned out to be 22.0%. Further, the “% β-catenin induction” value with d-U937 cells (test compound 10 μg/mL) is reported as 25.5%.
In the case of `COCCOCCOCCOc1cc(Nc2cc(Oc3ccc(NC(=O)Nc4cc(C(C)(C)C)cc(C(=O)NCCN5CCOCC5)c4OC)c4ccccc34)ccn2)cc(OC)c1` [Example 16, 5-(tert-Butyl)-2-methoxy-3-(3-(4-((2-((3-methoxy-5-(2-(2-(2-methoxyethoxy)ethoxy)ethoxy)-phenyl)amino)pyridin-4-yl)oxy)naphthalen-1-yl)ureido)-N-(2-morpholinoethyl)benzamide], in the assay on HT29 cells, the pIC50 was 8.82. The “% β-catenin induction” value is given as 0.0% in the assay with d-U937 cells (test compound 1 μg/mL), −3.0% with d-U937 cells (test compound 5 μg/mL) and −6.5% in the assay with d-U937 cells (test compound 10 μg/mL).
In the same order, the values of `COCCOCCOCCOc1cc(Nc2cc(Oc3ccc(NC(=O)Nc4cc(C(C)(C)C)cc([S+](C)[O-])c4OC)c4ccccc34)ccn2)cc(OC)c1` (stereo not drawn) [Example 17, 1-(5-(tert-Butyl)-2-methoxy-3-(methylsulfinyl)phenyl)-3-(4-((2-((3-methoxy-5-(2-(2-(2-methoxyethoxy)ethoxy)ethoxy)phenyl)amino)pyridin-4-yl)oxy)naphthalen-1-yl)urea] are 8.70, −2.0%, −7.0% and −5.5%.
In the same order, the values of `COc1c(CS(C)(=O)=O)cc(C(C)(C)C)cc1NC(=O)Nc1ccc(Oc2ccnc(Nc3ccccc3)c2)c2ccccc12` [Example 19, 1-(5-(tert-Butyl)-2-methoxy-3-((methylsulfonyl)methyl)phenyl)-3-(4-((2-(phenylamino)pyridin-4-yl)oxy)naphthalen-1-yl)urea] are 8.07, 2.5%, 9.0% and 13.0%.
Taken in the same sequence, the figures for `COc1cc(Nc2nccc(Oc3ccc(NC(=O)Nc4cc(C(C)(C)C)cc(OCP(C)(C)=O)c4OC)c4ccccc34)n2)cc(OC)c1` [Example 20, 1-(5-(tert-Butyl)-3-((dimethylphosphoryl)methoxy)-2-methoxyphenyl)-3-(4-((2-((3,5-dimethoxyphenyl)amino)pyrimidin-4-yl)oxy)naphthalen-1-yl)urea] were 8.48, 2.5%, 20.5% and 16.5%.
`COc1cc(Nc2cc(Oc3ccc(NC(=O)Nc4cc(C(C)(C)C)cc(CC(N)=O)c4OC)c4ccccc34)ccn2)cc(OC)c1` [Example 30, 2-(5-(tert-Butyl)-3-(3-(4-((2-((3,5-dimethoxyphenyl)amino)pyridin-4-yl)oxy)naphthalen-1-yl)ureido)-2-methoxyphenyl)acetamide]: in the assay on TNBS-induced colitis, the “Activity in in vivo model of colonic inflammation (histopathology analysis)” value is listed as “significant activity”; the “Inflammatory cell infiltrate in the reticular and laminar propria zone” value is “marked reductions”; the “TNBS LP inflammation” value was 2.5 ± 0.4; the “TNBS Ulcer grade” value was found to be 3.1 ± 0.4. Also, the “Ulcer grade and epithelial repair compared to the vehicle control” value in the assay on TNBS-induced colitis (dosed orally at 5 mg/kg, 2 days) is listed as “marked improvements”. Further, the “% β-catenin induction” value in the assay with d-U937 cells (test compound 1 μg/mL) was 6.5%. In addition, in the assay with d-U937 cells (test compound 5 μg/mL), the “% β-catenin induction” value is 23.5%. Moreover, the “% β-catenin induction” value in the assay with d-U937 cells (test compound 10 μg/mL) is 1.0%.
Take `COc1cc(Nc2cc(Oc3ccc(NC(=O)Nc4cc(C(C)(C)C)cc([S+](C)[O-])c4OC)c4ccccc34)ccn2)cc(OC)c1` (stereo not drawn) [Example 40, 1-(5-(tert-Butyl)-2-methoxy-3-(methylsulfinyl)phenyl)-3-(4-((2-((3,5-dimethoxyphenyl)amino)pyridin-4-yl)oxy)naphthalen-1-yl)urea]: the pIC50 with HT29 cells was 8.52. Besides, the “% β-catenin induction” value in the assay on d-U937 cells (test compound 1 μg/mL) was −2.0%; with d-U937 cells (test compound 5 μg/mL) it was −2.0%; with d-U937 cells (test compound 10 μg/mL) it was −0.5%.
For `COc1cccc(Nc2cc(Oc3ccc(NC(=O)Nc4cc(C(C)(C)C)cc([S+](C)[O-])c4OC)c4ccccc34)ccn2)c1` (stereo not drawn) [Example 41, 1-(5-(tert-Butyl)-2-methoxy-3-(methylsulfinyl)phenyl)-3-(4-((2-((3-methoxyphenyl)amino)pyridin-4-yl)oxy)naphthalen-1-yl)urea], the pIC50 in the assay with HT29 cells was 8.66. For the same compound, the results for the “% β-catenin induction” value in the assay with d-U937 cells (test compound 1 μg/mL), with d-U937 cells (test compound 5 μg/mL) and in the assay with d-U937 cells (test compound 10 μg/mL) were −1.0%, −1.5% and 1.5%, respectively.
Regarding `COc1cccc(Nc2cc(Oc3ccc(NC(=O)Nc4cc(C(C)(C)C)cc(CNC(C)=O)c4OC)c4ccccc34)ccn2)c1` [Example 43, N-(5-(tert-Butyl)-2-methoxy-3-(3-(4-((2-((3-methoxyphenyl)amino)pyridin-4-yl)oxy)naphthalen-1-yl)ureido)benzyl)acetamide], the pIC50 in the assay on HT29 cells was 8.43. Besides, the “% β-catenin induction” value turned out to be 7.5% in the assay on d-U937 cells (test compound 1 μg/mL), 19.5% with d-U937 cells (test compound 5 μg/mL) and 20.5% in the assay with d-U937 cells (test compound 10 μg/mL).
In the same order, the values of `COc1cc(Nc2cc(Oc3ccc(NC(=O)Nc4cc(C(C)(C)C)cc(CNC(C)=O)c4OC)c4ccccc34)ccn2)cc(OC)c1` [Example 44, N-(5-(tert-Butyl)-3-(3-(4-((2-((3,5-dimethoxyphenyl)amino)pyridin-4-yl)oxy)naphthalen-1-yl)ureido)-2-methoxybenzyl)acetamide] are 8.28, 5.0%, 8.0% and 11.0%.
